Some test systems named below: 786-0; A498; A549; COLO 205; HCT-116; HCT-15; M14; NCI-H460; OVCAR-4; OVCAR-5; PC-3; RPMI-8226; SF-539; SK-MEL-2; SK-MEL-5; SNB-75; SR; SW-620; U-251; UO-31.
Holding throughout (experiment): growth of human tumour cells (NCI), 48 h

Molecules are shown by their SMILES.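 Test compounds were applied to cells in 96-well plates for 48 hours at 5 doses. At the GI50, growth is halved.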 The source made the active and inactive calls. Cut-off read from the data, not from the text of the source: active = GI50 up to about 1.1 µM and inactive = higher.

We go through five compounds from ChEMBL document CHEMBL1201862, “PubChem BioAssay data set” (2004).

As for `C=C1C[C@@H](O)[C@@H](Br)C(C)(C)[C@@]12C=CC(=O)CC2`, the GI50 in the test on 786-0 is > 100 µM (inactive); in the test on A498, > 100 µM (inactive); with A549 it was > 100 µM (inactive); with COLO 205, 1.77 µM (inactive); in the test on HCT-116 it was > 86.5 µM (inactive); in the test on HCT-15, over 100 µM. The GI50 with M14 was > 100 µM (inactive); in the test on NCI-H460 it was > 100 µM (inactive); with OVCAR-4 it was > 100 µM (inactive); in the test with OVCAR-5, 3.18 µM (inactive); in the test on PC-3 it was 1.5 µM (inactive); in the test on RPMI-8226 it was > 100 µM (inactive). Moreover, the GI50 with SF-539 was > 100 µM (inactive); in the test with SK-MEL-2, > 78.5 µM (inactive); in the test with SK-MEL-5 it was > 100 µM (inactive); in the test with SNB-75, > 63.2 µM (inactive); in the test with SR, > 100 µM (inactive); with SW-620 it was > 100 µM (inactive). The GI50 was > 100 µM (inactive) in the test with U-251 and > 96.4 µM (inactive) in the test on UO-31.
On to `CSC12c3cc(C)n(-c4ccc(I)cc4)c3CC(C)(C)CN1C(=O)C2Oc1ccccc1` (stereo not given), for which the GI50 with 786-0 was > 100 µM (inactive); with A498, 97.5 µM (inactive); in the test with A549, > 96.4 µM (inactive); in the test with COLO 205 it was > 100 µM (inactive); with HCT-116 it was 48.6 µM (inactive); in the test with HCT-15, over 100 µM. In addition, the GI50 in the test on M14 is > 100 µM (inactive); in the test on NCI-H460, > 100 µM (inactive); in the test on OVCAR-4, > 100 µM (inactive); in the test with OVCAR-5, > 100 µM (inactive); with PC-3, 98.6 µM (inactive); with RPMI-8226, > 71.1 µM (inactive). For the same compound, the GI50 is > 100 µM (inactive) in the test with SF-539; > 100 µM (inactive) with SK-MEL-2; 97.5 µM (inactive) in the test with SK-MEL-5; > 100 µM (inactive) in the test on SNB-75; > 91.2 µM (inactive) in the test on SR; > 100 µM (inactive) with SW-620. Moreover, the GI50 in the test with U-251 and with UO-31 was > 100 µM (inactive) each time.
Consider `Nc1c(C(=O)O)nnc2cc(Cl)c(Cl)cc12`, for which the GI50 was > 100 µM (inactive) with 786-0; 91 µM (inactive) in the test with A498; > 100 µM (inactive) in the test with A549; > 100 µM (inactive) in the test with COLO 205; > 100 µM (inactive) in the test on HCT-116; over 100 µM in the test with HCT-15. In addition, the GI50 with M14, in the test on NCI-H460, with OVCAR-4, in the test with OVCAR-5, with PC-3 and in the test on RPMI-8226 was > 100 µM (inactive) in each case. Moreover, the GI50 in the test with SF-539, with SK-MEL-2, in the test with SK-MEL-5, with SNB-75, with SR and in the test on SW-620 was > 100 µM (inactive) throughout. Also, the GI50 is > 100 µM (inactive) with U-251 and 56.9 µM (inactive) in the test with UO-31.
As for `CC(/C=C/C=C\C=C\C=C(/C)C(=O)NC(C)CO)=C\C(C)C(O)/C(C)=C/C(C)CCc1ccccc1` (stereo not given), the GI50 is 13.4 µM (inactive) with 786-0; 12.6 µM (inactive) in the test with A498; 4.05 µM (inactive) with A549; 13.7 µM (inactive) in the test on COLO 205; 0.127 µM (active) with HCT-116; 12.8 µM in the test with HCT-15. The GI50 is 8 µM (inactive) with M14; 3.85 µM (inactive) in the test with NCI-H460; 12.4 µM (inactive) in the test on OVCAR-4; 10.9 µM (inactive) in the test with OVCAR-5; 7.94 µM (inactive) in the test on PC-3; 4.14 µM (inactive) in the test with RPMI-8226. For the same compound, the GI50 was 14.1 µM (inactive) in the test with SF-539; 13.2 µM (inactive) in the test with SK-MEL-2; 0.198 µM (active) in the test on SK-MEL-5; 13 µM (inactive) in the test on SNB-75; 1.14 µM (inactive) with SR; 13.6 µM (inactive) with SW-620. The GI50 is 14.9 µM (inactive) with U-251 and 5.11 µM (inactive) with UO-31.
For `Oc1c(C2=NNC(c3cccs3)C2)ccc2ccccc12` (stereo not given), the GI50 is 32.9 µM (inactive) with 786-0; 26.2 µM (inactive) in the test with A498; 25.3 µM (inactive) with A549; 19.5 µM (inactive) in the test on COLO 205; 16.4 µM (inactive) in the test on HCT-116; 18.2 µM in the test with HCT-15. The GI50 in the test with M14 was 14.4 µM (inactive); in the test on NCI-H460, 14.8 µM (inactive); in the test with OVCAR-4 it was 29.4 µM (inactive); in the test with OVCAR-5, 29.6 µM (inactive); in the test on PC-3, 27 µM (inactive); with RPMI-8226, 17.7 µM (inactive). For the same compound, the GI50 in the test on SF-539 was 20.1 µM (inactive); with SK-MEL-2 it was 40.5 µM (inactive); in the test on SK-MEL-5 it was 23.2 µM (inactive); with SNB-75, 21.3 µM (inactive); with SR, 8.89 µM (inactive); with SW-620, 24.5 µM (inactive). In addition, the GI50 in the test on U-251 is 25 µM (inactive); in the test with UO-31, 32.4 µM (inactive).
